# Reference: patent US20140017204A1, “Transfection of Mesothelium Body Cavity Lining with Gene Agents Followed by Chemotharapy to Treat Cancer of Organs in the Body Cavity” (WKD Holding Oy, priority 2012, published 2014)
# What was measured:
# SKOV-3m cells = assay: intraperitoneal ovarian cancer xenograft model in mice; format: in vivo, Balb/cA-nu female nude mice; details: for mean survival: control group 15±1 days
# Procedure: Gene therapy was also combined with chemotherapy. Therapy was initiated when sizable tumors were confirmed in magnetic resonance imaging (MRI). Adenovirus-mediated gene transfer was performed intravenously (2×10^9 pfu), while chemotherapy and monoclonal anti-VEGF-antibody were dosed intraperitoneally. […] Effectiveness was assessed by survival time and surrogate measures such as sequential MRI, immunohistochemistry, microvessel density and tumor growth.
# Cells were cultured in McCoy's 5A medium (Gibco, Invitrogen, Life Technologies). Cancer cells were tested to be mycoplasma free. Before in vivo inoculation, the cells were trypsinized and counted.
# Chemotherapy and anti-VEGF-antibody: Carboplatin 10 mg/ml infusion concentrate was used at a dose of 80 mg/kg for the primary treatment of Balb/cA-nu mice. The dose per Balb/cA-nu was 1.6 mg/500 μl NaCl 0.9%. Paclitaxel 6 mg/ml concentrate was used at a dose of 20 mg/kg. The dose per nude mouse was 320 μg/500 μl NaCl 0.9%. […] It was injected every fifth day.
# Viral vectors: Adenoviral vectors encoding sVEGFR-1-IgG fusion protein, sVEGFR-2-IgG fusion protein, sVEGFR-3-IgG fusion protein and LacZ (AdLacZ) as a control vector were used for the study.
# Animal model: Eight to 10-weeks-old (n ¼ 80) Balb/cA-nu female nude mice were used for the studies. Ovarian carcinoma was produced by inoculating 1×10^7 SKOV-3m cells into the peritoneal cavity of nude mice with a 22 G needle. Development of the ovarian cancerous tumors was followed by sequential MRI. When the first solid, measurable tumor was detected in MRI, gene transfer or other treatment was started on the following day. Mice were randomly divided into six groups:
# Tumors developed within 3 weeks after the inoculation of the tumor cells. The presence of all tumors was verified by MRI (magnetic resonance imaging) before starting the therapy. Tumors were observed weekly until the death of the mice. Plasma samples were collected 6, 13, 20 and 27 days after the treatment. Gene transfer was performed intravenously (i.v.) via tail vein in the final volume of 200 ll in 0.9% saline.
# MRI was done weekly after gene transfer or treatment, and tumor volumes were measured. The overall follow-up time lasted until the appearance of significant symptoms necessitating sacrifice or to the death. At the time of death, all tumor tissue, liver, spleen, kidneys and lungs were harvested, and tumor masses were weighed. Ascites fluid was collected in a syringe. The mice were kept in a pathogen-free isolated unit at the National Experimental Animal Center of the University of Eastern Finland. Food, water and sawdust bedding were autoclaved, and the mice received chow and water ad libitum.
# Photographs of histological sections were taken and processed using an Olympus AX70 microscope (Olympus Optical, Japan) and analySIS (Soft Imaging System, GmbH, Germany) and PhotoShop (Adobe) softwares. Microvessel density (MVD) and total microvascular area (%) of the tumors (TVA) were measured from CD34-immunostained sections using analySIS software at 100× magnification in a blinded manner (FIG. 36). Six to 10 different fields, which represented maximum MVD areas, were selected from each tumor. Necrotic areas were avoided. In addition, the total number of LYVE-1-positive lymphatic vessels per section was counted. Mean 6 SEM of the measurements are reported. […]
# [1] = system: malignant pleural mesothelioma; details: in vivo; cited from earlier work
# murine tumor = murine tumor volume: gemcitabine and interferon beta gene therapy vector (FIG. 21); format: in vivo; details: after 40 days; placebo about 1400
# Source text: FIG. 21 is a chart comparing murine tumor volume of control; gemcitabine (administered day=0); interferon beta gene therapy vector (administered day=0); and interferon beta gene therapy vector (day=0) followed by gemcitabine (day=3).
compound,measurement,setting,value
N.N.O=C([O-])C1(C(=O)[O-])CCC1.[Pt+2] [carboplatin],mean survival,SKOV-3m cells,13 ± 1 days
N.N.[Cl][Pt][Cl] [cisplatin],median survival time,[1],9 months
Nc1ccn([C@@H]2O[C@H](CO)[C@@H](O)C2(F)F)c(=O)n1 [gemcitabine],average tumor size,murine tumor,1200 mm^3
CC(=O)O[C@H]1C(=O)[C@@]2(C)[C@H]([C@H](OC(=O)c3ccccc3)[C@]3(O)C[C@H](OC(=O)[C@H](O)[C@@H](NC(=O)c4ccccc4)c4ccccc4)C(C)=C1C3(C)C)[C@]1(OC(C)=O)CO[C@@H]1C[C@@H]2O [paclitaxel],mean survival,SKOV-3m cells,15 ± 1 days
bevacizumab,effect on angiogenesis by micro-vessel measurements,"SKOV-3m cells; mouse, in vivo",did not have any effect
same,"effect on survival, tumor volume or mean tumor weight","SKOV-3m cells; mouse, in vivo",did not have any significant effect
same,effect on the survival,"SKOV-3m cells; mouse, in vivo",did not have any significant effect
